Measurements published in paper PMC10650850, “Discovery, Structure–Activity Relationship and In Vitro Anticancer Activity of Small-Molecule Inhibitors of the Protein–Protein Interactions between AF9/ENL and AF4 or DOT1L” (Cancers, 2023).
Structures can show the parent of a compound that is named as a salt.

Target: T1, AF9-DOT1L interaction (Homo sapiens, UniProt P42568)
T1 construct: human AF9 AHD domain (475–568); made in house; host or cells: E. coli BL21(DE3)
T1 sequence (P42568 475-568): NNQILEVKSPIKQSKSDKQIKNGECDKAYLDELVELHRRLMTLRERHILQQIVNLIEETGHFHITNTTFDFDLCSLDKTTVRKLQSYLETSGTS
Experiment: AlphaLisa assay, AF9-DOT1L interaction
Assay type: binding
Conditions: for inhibition at 5 µM: compound at 5 μM, read-out: % Inhibition at 5 μM against the AF9-DOT1L interaction; for IC50: MBP-protein 5 nM, biotinylated peptide 40 nM, 3 independent experiments with standard deviation, read-out: IC50 (μM) against the AF9-DOT1L interaction
Source text: An AlphaLisa assay we previously developed was used for compound screening for inhibitors of the AF9-DOT1L interaction. The PPI takes the DOT1L-peptide coated donor beads and AF9 AHD coated acceptor beads together. The donor beads are illuminated with a laser beam (680 nm) to generate singlet oxygen radicals, which activate the adjacent acceptor beads to produce luminescence at 615 nm. When a compound can disrupt such PPI and separate the donor and acceptor beads, the highly unstable radicals are rapidly quenched by water without generating luminescence.
The cDNA for the human AF9 AHD domain (475–568) and ENL AHD domain (489–559) was synthesized (by Genscript, Piscataway, NJ, USA) and inserted into the pMAL c5X expression plasmid. The DOT1L peptide (Biotin-AHX-[…]) and AF4 peptide (Biotin-AHX-[…]) for the Alpha assay were purchased from Genscript.
Alpha assays were developed in our previous publication, using a Perkin-Elmer AlphaLisa anti-MBP kit, which contains streptavidin donor beads and anti-MBP acceptor beads. Briefly, the assay was performed using a MBP-protein (5 nM), a biotinylated peptide (40 nM), and increasing concentrations of a compound in 25 µL buffer (PBS with 0.5% BSA, pH 7.5) in 384-well plates according to the manufacturer’s protocol and measured with a Tecan SPARK microplate reader. Data were imported into Prism (version 5.0), and IC50 values from 3 independent experiments with standard deviation were obtained by using a standard dose-response curve fitting.

Compound	inhibition at 5 µM	IC50
O=C(NCC1CCNCC1)c1cc2ccc(-c3ccc(-c4ccccc4)cc3)cc2o1 [Compound 67, 6-((1,1′-Biphenyl)-4-yl)-N-(piperidin-4-ylmethyl)-benzofuran-2-carboxamide hydrochloride]	0%	–
O=C(NCC1CCNCC1)c1cc2ccc(-c3ccc(C(=O)N4CCCCC4)cc3)cc2o1 [Compound 64, 6-(4-((Piperidine-1-yl)carbonyl)phenyl)-N-(piperidin-4-ylmethyl)-benzofuran-2-carboxamide hydrochloride]	0%	–
O=C(NCC1CCNCC1)c1cc2cc(-c3ccc(N4CCNCC4)cc3)ccc2[nH]1 [Compound 18]	36%	–
O=C(NCc1ccc(-c2ccc3cc(C(=O)NCC4CCNCC4)oc3c2)cc1)OCc1ccccc1 [Compound 71, 6-(4-(Benzyloxycarbonylaminomethyl)phenyl)-N-(piperidin-4-ylmethyl)-benzofuran-2-carboxamide hydrochloride]	27%	–
O=C(NCC1CCNCC1)c1cc2ccc(N3CCC(N4CCCCC4)CC3)cc2s1 [Compound 31]	14%	–
O=C(NCC1CCNCC1)c1cc2ccc(Oc3ccc(Oc4ccc(Cl)cc4)cc3)cc2s1 [Compound 36, 6-(4-(4-Chlorophenoxyl)phenoxyl)-N-(piperidin-4-ylmethyl)-benzo[b]thiophene-2-carboxamide hydrochloride]	50%	~5 µM
CN1CCN(c2ccc(-c3ccc4cc(C(=O)NCC5CCNCC5)oc4c3)cc2)CC1 [Compound 60, 6-(4-(4-Methylpiperazin-1-yl)phenyl)-N-(piperidin-4-ylmethyl)-benzofuran-2-carboxamide hydrochloride]	32%	–
O=C(NCC1CCNCC1)c1cc2ccc(Oc3ccc(Oc4ccc(Cl)cc4)cc3)cc2o1 [Compound 77, 6-(4-(4-Cholorophenoxyl)phenoxyl)-N-(piperidin-4-ylmethyl)-benzofuran-2-carboxamide hydrochloride]	20%	–
O=C(NCC1CCNCC1)c1cc2ccc(-c3ccc(C(=O)N4CCC(N5CCCCC5)CC4)cc3)cc2o1 [Compound 66, 6-(4-((1,4′-Bipiperidine-1-yl)carbonyl)phenyl)-N-(piperidin-4-ylmethyl)-benzofuran-2-carboxamide hydrochloride]	0%	–
O=C(NCC1CCNCC1)c1cc2ccc(N3CCC(N4CCCC4)CC3)cc2s1 [Compound 32]	20%	–
O=C(NCC1CCNCC1)c1cc2ccc(-c3ccc(C(=O)N4CCCCCC4)cc3)cc2o1 [Compound 65, 6-(4-((Azepane-1-yl)carbonyl)phenyl)-N-(piperidin-4-ylmethyl)-benzofuran-2-carboxamide hydrochloride]	0%	–
CC(C)(C)c1cccc(-c2ccc3cc(C(=O)NCC4CCNCC4)[nH]c3c2)c1 [Compound 9, 6-(3-(tert-Butyl)phenyl)-N-(piperidin-4-ylmethyl)-1H-indole-2-carboxamide hydrochloride]	17%	–
O=C(NCC1CCNCC1)c1c[nH]c2ccc(-c3ccc(N4CCCCC4)cc3)cc12 [Compound 23, 5-(4-(Piperidin-1-yl)phenyl)-N-(piperidin-4-ylmethyl)-1H-indole-3-carboxamide hydrochloride]	43%	–

More lines, now with the values ahead:

inhibition at 5 µM	IC50	Compound
25%	–	CCN(CC)c1ccc(-c2ccc3cc(C(=O)NCC4CCNCC4)sc3c2)cc1 [Compound 27, 6-(4-(Diethylamino)phenyl)-N-(piperidin-4-ylmethyl)-benzo[b]thiophene-2-carboxamide hydrochloride]
33%	–	CC(C)(C)c1ccc(-c2ccc3sc(C(=O)NCC4CCNCC4)cc3c2)cc1 [Compound 54, 5-(4-(Tert-butyl)phenyl)-N-(piperidin-4-ylmethyl)-benzo[b]thiophene-2-carboxamide hydrochloride]
49%	–	CS(=O)(=O)c1ccc(-c2ccc3cc(C(=O)NCC4CCNCC4)sc3c2)cc1 [Compound 43, 6-(4-(Methylsulfonyl)phenyl)-N-(piperidin-4-ylmethyl)-benzo[b]thiophene-2-carboxamide hydrochloride]
43%	–	COc1ccc(-c2ccc3cc(C(=O)NCC4CCNCC4)sc3c2)cc1 [Compound 45, 6-(4-Methoxylphenyl)-N-(piperidin-4-ylmethyl)-benzo[b]thiophene-2-carboxamide hydrochloride]
0%	–	O=C(NCC1CCNCC1)c1cc2ccc(-c3ccc(C(=O)N4CCCC4)cc3)cc2s1 [Compound 30]
~50%	–	N#CCc1ccc(-c2ccc3cc(C(=O)NCC4CCNCC4)sc3c2)cc1 [Compound 41, 6-(4-(Cyanomethyl)phenyl)-N-(piperidin-4-ylmethyl)-benzo[b]thiophene-2-carboxamide hydrochloride]
19%	–	CS(=O)(=O)c1ccc(-c2ccc3cc(C(=O)NCC4CCNCC4)oc3c2)cc1 [Compound 70, 6-(4-(Methylsulfonyl)phenyl)-N-(piperidin-4-ylmethyl)-benzofuran-2-carboxamide hydrochloride]
–	2.8 ± 0.2 µM	O=C(NCC1CCNCC1)c1cc2ccc(-c3ccc(N4CCCC4)cc3)cc2[nH]1 [Compound 3, 6-(4-(1-Pyrrolinylphenyl)-N-(piperidin-4-ylmethyl)-1H-indole-2-carboxamide hydrochloride]
40%	–	O=C(NCC1CCNCC1)c1cc2ccc(-c3ccc(N4CCOCC4)cc3)cc2s1 [Compound 26, 6-(4-(Morpholino)phenyl)-N-(piperidin-4-ylmethyl)-benzo[b]thiophene-2-carboxamide hydrochloride]
8%	–	O=C(NCC1CCNCC1)c1cc2ccc(-c3ccc(C(=O)N4CCCCC4)cc3)cc2s1 [Compound 29, 6-(4-(Piperidine-1-carbonyl)phenyl)-N-(piperidin-4-ylmethyl)-benzo[b]thiophene-2-carboxamide hydrochloride]
0%	–	O=C(NCC1CCNCC1)c1cc2ccc(-c3ccc(O)cc3)cc2s1 [Compound 46, 6-(4-Hydroxylphenyl)-N-(piperidin-4-ylmethyl)-benzo[b]thiophene-2-carboxamide hydrochloride]
30%	–	CCN(CC)c1ccc(-c2ccc3cc(C(=O)NCC4CCNCC4)oc3c2)cc1 [Compound 62, 6-(4-(Diethylamino)phenyl)-N-(piperidin-4-ylmethyl)-benzofuran-2-carboxamide hydrochloride]
–	2.3 ± 0.2 µM	O=C(NCC1CCNCC1)c1cc2ccc(Nc3ccc(N4CCCCC4)cc3)cc2s1 [Compound 35, 6-((4-(Piperidin-1-yl)phenyl)amino)-N-(piperidin-4-ylmethyl)-benzo[b]thiophene-2-carboxamide hydrochloride]
5.6%	–	O=C(NCC1CCNCC1)c1cc2ccc(-c3ccc(CCO)cc3)cc2[nH]1 [Compound 7]
26%	–	N#Cc1ccc(-c2ccc3cc(C(=O)NCC4CCNCC4)sc3c2)cc1F [Compound 42, 6-(4-Cyano-3-fluorophenyl)-N-(piperidin-4-ylmethyl)-benzo[b]thiophene-2-carboxamide hydrochloride]
21%	–	O=C(NCC1CCNCC1)c1cc2ccc(-c3ccc(F)cc3)cc2s1 [Compound 49, 6-(4-Fluorophenyl)-N-(piperidin-4-ylmethyl)-benzo[b]thiophene-2-carboxamide hydrochloride]
